Assay results as given in patent US20220095648A1, “USE OF A THRAUSTOCHYTRID BIOMASS FOR MAINTAINING GUT BARRIER FUNCTION” (priority 2019, published 2022).

How the values were obtained:
Caco-2 cells [1] = test: L-Threonine uptake by Caco-2 cells exposed to DON; type: cell-based; details: DON 10 μM alone; for % of inhibition by DON, Active transport: total minus passive
Text: (§1) In order to test the ability of microalgae to reduce/prevent the effect of DON on nutrient absorption through epithelial cells, Caco-2 cells were exposed to a metabolically active dose of DON, in the absence or presence of Aurantiochytrium mangrovei FCC1325 microalgae (lyophilized microalgae “ML”, or digested lyophilized microalgae “MLD”), at a dose of 1% or 5%. Two main types of nutrients were considered (i.e. glucose and amino acids—more particularly Methionine, Lysine and Threonine), and the following measurements were carried out: • For glucose (D-Glc): passive, active (regulated by the sodium-dependent SGLT-1 transporter) and total (active+passive) absorption • For amino acids (L-Methionine, L-Lysine and L-Threonine): passive, active (regulated by sodium-dependent transport) and total (active+passive) absorption
(§2) Briefly, Caco-2 cells were cultured and seeded onto 12-well inserts, as described in Example 1, and then let to differentiate for 16-21 days post-seeding before being used, with medium changes every two days. When differentiated, Caco-2 cells were incubated or not with DON at 10 μM (apically added), in the absence or presence of 1 or 5% (v:v final dilution, apically added) of microalgae preparation (ML or MLD). Both ML and MLD powders were resuspended initially at 0.8 mg/ml in buffer (fresh culture medium of the microalgae). Caco-2 cells were incubated for 12, 24 or 48 hours before nutrient uptake was measured.
(§3) At the end of the incubation period, inserts were washed twice with PBS++. Inserts were then washed twice with uptake buffer (Ringer Hepes buffer) with or without sodium. Uptake buffer composition was: • Ringer Hepes buffer with sodium (called “+Na+”): 137 mmol/L NaCl, 5.36 mmol/L KCl, 0.4 mmol/L Na2HPO4, 0.8 mmol/L MgCl2, 1.8 mmol/L CaCl2, 20 mmol/L N-2-hydroxyethylpiperazine-N-2-ethanesulfonic acid (HEPES), pH being adjusted to pH 7.4 with NaOH; or • Ringer Hepes buffer without sodium (called “—Na+”): 137 mmol/L Choline chloride (instead of sodium chloride), 5.36 mmol/L KCl, 0.4 mmol/L K2HPO4 (instead of Na2HPO4), 0.8 mmol/L MgCl2, 1.8 mmol/L CaCl2, 20 mmol/L N-2-hydroxyethylpiperazine-N-2-ethanesulfonic acid (HEPES), pH being adjusted to pH 7.4 with KOH.
(§4) After an equilibration period of 15 min at 37° C., uptake assay was initiated by the addition of D-Glc, L-Lysine, L-Methionine or L-Threonine diluted in the appropriate Ringer Hepes buffer (400 μl) and added apically onto Caco-2 inserts (final concentration of 100 μM of D-Glc and 400 μM for amino-acids), the basolateral compartment being filled with 400 μl of buffer. Inserts were kept incubated at 37° C. during the uptake assay. After 15 minutes incubation, 30 μl of media were collected from apical or basolateral compartments and stored at −20° C. until nutrient quantification. Residual concentrations of D-Glc or L-amino acid present in the apical compartments were measured using enzyme-based quantification assay kits (Glucose Colorimetric/Fluorometric Assay Kit, Sigma-Aldrich).
(§5) Uptakes were expressed as: • Total uptake: uptake measured (either measured residual apical concentration or calculated absorbed (intracellular+basolateral) concentration) in Ringer Hepes buffer with Na+corresponding to the activity of sodium-dependent and sodium-independent transporters; • Passive uptake: uptake measured in Ringer Hepes buffer without Na+corresponding to only passive/sodium-independent transporters; • Active uptake: uptake calculated by subtracting passive uptake to total uptake.

Caco-2 cells [2] = test: L-Methionine uptake by Caco-2 cells exposed to DON; type: cell-based; details: for % of inhibition by DON, Passive uptake (−Na) / % of inhibition by DON, Total uptake (+Na) / % of inhibition by DON, Active transport: L-Methionine, DON 10 μM alone; for % of inhibition by DON, Active transport: total minus passive
Text: as §1, §2, §3, §4, §5

[3] = system: sodium-dependent SGLT-1 transporter; test: SGLT-1 mediated (active) D-glucose uptake by Caco-2 cells exposed to DON; type: cell-based; details: DON 10 μM alone, total minus passive
Text: as §1
as §2, with “Both ML and MLD powders were resuspended initially at 0.8 mg/ml in buffer (fresh culture medium of the microalgae).” left out, “measured. […]” for “measured.”
as §4, with “Inserts were kept incubated at 37° C. during the uptake assay.” left out, “Sigma-Aldrich). […]” for “Sigma-Aldrich).”

Caco-2 cells [4] = test: L-Lysine uptake by Caco-2 cells exposed to DON; type: cell-based; details: for % of inhibition by DON, Passive uptake (−Na) / % of inhibition by DON, Total uptake (+Na) / % of inhibition by DON, Active transport: L-Lysine, DON 10 μM alone; for % of inhibition by DON, Active transport: total minus passive
Text: as §1, §2, §3, §4, §5

Caco-2 cells [5] = test: D-glucose total and passive uptake by Caco-2 cells exposed to DON; type: cell-based; details: DON 10 μM alone
Text: as §1, §2, §3, §4, §5

Caco-2 cells [6] = test: Nutrient uptake by Caco-2 cells exposed to DON (overall conclusion); type: cell-based; details: DON at 10 μM
Protocol: In order to test the ability of microalgae to reduce/prevent the effect of DON on nutrient absorption through epithelial cells, Caco-2 cells were exposed to a metabolically active dose of DON, in the absence or presence of Aurantiochytrium mangrovei FCC1325 microalgae (lyophilized microalgae “ML”, or digested lyophilized microalgae “MLD”), at a dose of 1% or 5%. […]
Briefly, Caco-2 cells were cultured and seeded onto 12-well inserts, as described in Example 1, and then let to differentiate for 16-21 days post-seeding before being used, with medium changes every two days. […] Caco-2 cells were incubated for 12, 24 or 48 hours before nutrient uptake was measured. […]
as §4, with “Inserts were kept incubated at 37° C. during the uptake assay.” left out, “Sigma-Aldrich). […]” for “Sigma-Aldrich).”

Caco-2 cells [7] = test: TER of Caco-2 cells exposed to DON; type: cell-based
Protocol: Caco-2 cells were used as a model of intestinal epithelial cells. Cells were routinely grown in culture media (DMEM) supplemented with 10% fetal calf serum and 1% antibiotics (streptomycin penicillin solution). Cells were grown in 75 cm^2 ventilated flasks maintained at 37° C. in a 5% CO2 incubator. Cells were routinely passaged using trypsin-EDTA solution. For the assay, cells were seeded onto 12-well inserts (Thincert, Greiner, pore size 0.4 μm) at an initial density of 200,000 cells/cm^2 and let to differentiate for 10-14 days post-seeding before being used, with medium changes every two days. Cell differentiation was confirmed by reading the TER, using a Volt/Ohm meter (Millipore), at the beginning of the experiment, when the TER value reached 600 Ohm/cm^2. […]
After differentiation, Caco-2 cells were put in contact, during 48 or 72 h, with or without DON at different concentrations (0, 6.25, 12.5, 25, 50 or 100 μM), and with activated charcoal at 1% (w/v) as positive control, or with or without one of the microalgae preparation type at different concentrations (1, 5, or 20% v:v, final dilution), each added on the apical side. At the end of the incubation time, the TER was measured using a Volt/Ohm meter (Millipore), and results were expressed in percentages of the control put in contact with the same concentration of DON but not with the tested product (microalgae or charcoal). […]

Ross 308 broilers [8] = test: Gut permeability: FITC-dextran in plasma of DSS-treated broiler chickens; type: in vivo; details: DSS administration, control diet; blood 1 h after oral gavage
Text: (§6) Material and Methods: • Experimental animals: Day-of-hatch male Ross 308 broilers were obtained from a local hatchery, placed in floor pens until 6 days of age, and provided heat to maintain an age-appropriate temperature. Chicks were provided ad libitum access to water and the balanced experimental diets meeting the poultry nutrition requirements recommended for Ross 308 broilers during the starter period from 1 to 16 days of age. • Experimental diets: A basal starter diet (CON) in the form of short pellets was formulated based on wheat, corn, and soybean meal (Table 14). The other experimental diets were formulated to contain 5% microalgae Aurantiochytrium mangrovei (MAG-5) or 2% curcumin (CUM-2) by replacing part of the cereal, protein or oil content. […]
(§7) • Dextran Sulfate Sodium (DSS) administration: DSS was used to increase intestinal permeability in broilers, by inducing epithelium damage. […] Fluorescence levels of diluted plasma (1:4 in saline solution 0.9% NaCl) were measured at an excitation wavelength of 485 nm and emission wavelength of 528 nm (BIOTEK synergie H1), and FITC-dextran concentration per mL of plasma was calculated based on a standard curve. • At the time of euthanisa, the colon was collected for morphometry. […] The colon (from the ileocecal junction to the cloaca) was then excised and its length was measured.

Ross 308 broilers [9] = test: Colon length and colon mucosa aspect in DSS-treated broiler chickens; type: in vivo; details: DSS in drinking water, control diet
Text: as §6, §7

## CC1=C[C@H]2O[C@@H]3[C@H](O)C[C@](C)([C@@]2(CO)[C@H](O)C1=O)[C@]31CO1 [DON, Deoxynivalenol]
Caco-2 cells [1]; 12 h
  % of inhibition by DON, Passive uptake (−Na): −9.5%
  % of inhibition by DON, Total uptake (+Na): −6.3%
  % of inhibition by DON, Active transport: 56.5%
Caco-2 cells [1]; 24 h
  % of inhibition by DON, Passive uptake (−Na): −9.5%
  % of inhibition by DON, Total uptake (+Na): −6.3%
  % of inhibition by DON, Active transport: 56.5%
Caco-2 cells [1]; 48 h
  % of inhibition by DON, Passive uptake (−Na): −16.9%
  % of inhibition by DON, Total uptake (+Na): −14.5%
  % of inhibition by DON, Active transport: 76.4%
Caco-2 cells [2]; 12 h incubation
  effect of DON on L-Met active uptake: stimulated
Caco-2 cells [2]; 48 h incubation, DON alone
  effect of DON on active L-Met uptake: stimulated
Caco-2 cells [2]; 12 h
  % of inhibition by DON, Passive uptake (−Na): −2.2%
  % of inhibition by DON, Total uptake (+Na): −9.6%
  % of inhibition by DON, Active transport: −256.0%
Caco-2 cells [2]; 24 h
  % of inhibition by DON, Passive uptake (−Na): −4.9%
  % of inhibition by DON, Total uptake (+Na): −12.9%
Caco-2 cells [2]; 48 h
  % of inhibition by DON, Passive uptake (−Na): 1.8%
  % of inhibition by DON, Total uptake (+Na): −4.1%
  % of inhibition by DON, Active transport: −102.4%
[3]; 12 h
  % of inhibition by DON, SGLT-1 mediated: 19.2%
[3]; 24 h
  % of inhibition by DON, SGLT-1 mediated: 52.3%
[3]; 48 h
  % of inhibition by DON, SGLT-1 mediated: 51.4%
Caco-2 cells [4]; 48 h incubation, DON alone
  effect of DON on active L-Lys uptake: stimulated
Caco-2 cells [4]; 12 h
  % of inhibition by DON, Passive uptake (−Na): −6.1%
  % of inhibition by DON, Total uptake (+Na): −5.2%
  % of inhibition by DON, Active transport: 57.5%
Caco-2 cells [4]; 24 h
  % of inhibition by DON, Passive uptake (−Na): −10.1%
  % of inhibition by DON, Total uptake (+Na): −5.2%
  % of inhibition by DON, Active transport: 44.2%
Caco-2 cells [4]; 48 h
  % of inhibition by DON, Passive uptake (−Na): −6.6%
  % of inhibition by DON, Total uptake (+Na): −9.4%
  % of inhibition by DON, Active transport: −102.3%
Caco-2 cells [5]; 12 h
  % of inhibition by DON, Passive uptake (−Na): 6.4%
  % of inhibition by DON, Total uptake (+Na): 9.3%
Caco-2 cells [5]; 24 h
  % of inhibition by DON, Passive uptake (−Na): 22.2%
  % of inhibition by DON, Total uptake (+Na): 29.4%
Caco-2 cells [5]; 48 h
  % of inhibition by DON, Passive uptake (−Na): 21.6%
  % of inhibition by DON, Total uptake (+Na): 28.8%
Caco-2 cells [6]
  effect of DON on intestinal nutrient uptake: alters intestinal nutrient uptake
Caco-2 cells [7]; DON 6.25-100 μM, more pronounced as concentration increased
  effect of DON only on the TER: induced a reduction of the TER
Caco-2 cells [7]; IC50 of DON on TER, control without tested product, 48 h
  IC50: 11 µM

## Dextran Sulfate Sodium [DSS]
Ross 308 broilers [8]
  flow of FITC-dextran through the gut barrier: significantly increased
Ross 308 broilers [9]; 16-day old chickens, compared with group without DSS
  length of the colon: significantly increased
Ross 308 broilers [9]; compared with DSS- control group
  visual observation of the colon mucosa: thinner, translucent, and more fragile
